Measured values: patent publication US8471005B2 (Cephalon, Inc., priority 2008, dated 2013)
Where two headings read alike, the source gives them in different places.

Key:
ALK = molecular target: T1, ALK (Homo sapiens, UniProt Q9UM73); test: ALK Kinase Assay (ELISA/TRF, PLC-γ substrate); type: biochemical; conditions: read-out: ALK Potency
T1 construct: host or cells: baculovirus expression system
Outline: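 PLC-γ substrate coated at 10 μg/mL in TBS; reaction started with 30 ng/ml ALK, run 15 min at 37° C. Phosphoproduct detected by TRF with Eu-N1-labeled PT66 anti-phosphotyrosine antibody. IC50 from sigmoidal variable-slope fit of percent inhibition versus log concentration.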

JAK2 = molecular target: T2, JAK2 (Homo sapiens, UniProt O60674); test: Recombinant Human JAK2 Kinase Assay (TRF); type: biochemical; conditions: read-out: JAK2 Potency
T2 construct: host or cells: baculovirus expression system
Outline: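 Baculovirus-expressed JAK2 (15 ng/ml) phosphorylated a biotinylated 15-mer peptide captured on Neutravidin-coated plates, in 20 mM HEPES pH 7.2 with 0.2 μM ATP, 1 mM MnCl2, 0.1% BSA and 2.5% DMSO. Reaction ran 20 min at room temperature; phosphopeptide was detected by time-resolved fluorescence with Eu-N1-labelled PY100 antibody.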

[1] = ALK kinase inhibition, 1 μM ATP
[2] = JAK2 kinase inhibition, 0.2 μM ATP

T2 sequence (O60674 whole entry): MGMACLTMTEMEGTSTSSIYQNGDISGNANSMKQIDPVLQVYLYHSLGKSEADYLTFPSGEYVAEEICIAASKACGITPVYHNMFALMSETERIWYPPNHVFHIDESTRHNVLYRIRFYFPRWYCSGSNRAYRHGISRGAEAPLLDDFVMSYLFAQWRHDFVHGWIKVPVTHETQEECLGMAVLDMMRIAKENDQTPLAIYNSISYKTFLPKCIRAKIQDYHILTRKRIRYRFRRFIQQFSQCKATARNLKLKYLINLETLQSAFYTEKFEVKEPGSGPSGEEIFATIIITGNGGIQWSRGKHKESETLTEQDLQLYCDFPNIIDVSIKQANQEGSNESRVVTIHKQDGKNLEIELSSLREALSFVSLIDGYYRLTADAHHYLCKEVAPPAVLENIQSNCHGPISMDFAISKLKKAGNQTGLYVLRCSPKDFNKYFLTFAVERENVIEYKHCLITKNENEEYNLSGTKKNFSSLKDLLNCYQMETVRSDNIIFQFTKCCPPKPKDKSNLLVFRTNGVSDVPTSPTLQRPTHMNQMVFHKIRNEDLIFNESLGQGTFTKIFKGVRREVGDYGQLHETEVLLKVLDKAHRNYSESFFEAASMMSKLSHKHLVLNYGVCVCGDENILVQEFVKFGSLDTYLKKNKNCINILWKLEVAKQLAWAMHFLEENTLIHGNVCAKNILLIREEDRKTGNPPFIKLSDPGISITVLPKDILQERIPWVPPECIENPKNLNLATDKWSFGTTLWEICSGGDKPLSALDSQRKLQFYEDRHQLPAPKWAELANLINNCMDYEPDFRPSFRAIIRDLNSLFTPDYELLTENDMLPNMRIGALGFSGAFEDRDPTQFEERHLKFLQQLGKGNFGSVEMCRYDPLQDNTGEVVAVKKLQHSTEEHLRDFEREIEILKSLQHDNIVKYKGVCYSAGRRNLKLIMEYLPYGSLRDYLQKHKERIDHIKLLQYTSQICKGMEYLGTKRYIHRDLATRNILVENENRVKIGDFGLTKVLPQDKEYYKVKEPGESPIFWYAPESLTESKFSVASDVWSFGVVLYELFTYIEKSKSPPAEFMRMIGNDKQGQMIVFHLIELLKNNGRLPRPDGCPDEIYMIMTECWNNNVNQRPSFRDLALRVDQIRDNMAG
T1 sequence (Q9UM73 19-1620): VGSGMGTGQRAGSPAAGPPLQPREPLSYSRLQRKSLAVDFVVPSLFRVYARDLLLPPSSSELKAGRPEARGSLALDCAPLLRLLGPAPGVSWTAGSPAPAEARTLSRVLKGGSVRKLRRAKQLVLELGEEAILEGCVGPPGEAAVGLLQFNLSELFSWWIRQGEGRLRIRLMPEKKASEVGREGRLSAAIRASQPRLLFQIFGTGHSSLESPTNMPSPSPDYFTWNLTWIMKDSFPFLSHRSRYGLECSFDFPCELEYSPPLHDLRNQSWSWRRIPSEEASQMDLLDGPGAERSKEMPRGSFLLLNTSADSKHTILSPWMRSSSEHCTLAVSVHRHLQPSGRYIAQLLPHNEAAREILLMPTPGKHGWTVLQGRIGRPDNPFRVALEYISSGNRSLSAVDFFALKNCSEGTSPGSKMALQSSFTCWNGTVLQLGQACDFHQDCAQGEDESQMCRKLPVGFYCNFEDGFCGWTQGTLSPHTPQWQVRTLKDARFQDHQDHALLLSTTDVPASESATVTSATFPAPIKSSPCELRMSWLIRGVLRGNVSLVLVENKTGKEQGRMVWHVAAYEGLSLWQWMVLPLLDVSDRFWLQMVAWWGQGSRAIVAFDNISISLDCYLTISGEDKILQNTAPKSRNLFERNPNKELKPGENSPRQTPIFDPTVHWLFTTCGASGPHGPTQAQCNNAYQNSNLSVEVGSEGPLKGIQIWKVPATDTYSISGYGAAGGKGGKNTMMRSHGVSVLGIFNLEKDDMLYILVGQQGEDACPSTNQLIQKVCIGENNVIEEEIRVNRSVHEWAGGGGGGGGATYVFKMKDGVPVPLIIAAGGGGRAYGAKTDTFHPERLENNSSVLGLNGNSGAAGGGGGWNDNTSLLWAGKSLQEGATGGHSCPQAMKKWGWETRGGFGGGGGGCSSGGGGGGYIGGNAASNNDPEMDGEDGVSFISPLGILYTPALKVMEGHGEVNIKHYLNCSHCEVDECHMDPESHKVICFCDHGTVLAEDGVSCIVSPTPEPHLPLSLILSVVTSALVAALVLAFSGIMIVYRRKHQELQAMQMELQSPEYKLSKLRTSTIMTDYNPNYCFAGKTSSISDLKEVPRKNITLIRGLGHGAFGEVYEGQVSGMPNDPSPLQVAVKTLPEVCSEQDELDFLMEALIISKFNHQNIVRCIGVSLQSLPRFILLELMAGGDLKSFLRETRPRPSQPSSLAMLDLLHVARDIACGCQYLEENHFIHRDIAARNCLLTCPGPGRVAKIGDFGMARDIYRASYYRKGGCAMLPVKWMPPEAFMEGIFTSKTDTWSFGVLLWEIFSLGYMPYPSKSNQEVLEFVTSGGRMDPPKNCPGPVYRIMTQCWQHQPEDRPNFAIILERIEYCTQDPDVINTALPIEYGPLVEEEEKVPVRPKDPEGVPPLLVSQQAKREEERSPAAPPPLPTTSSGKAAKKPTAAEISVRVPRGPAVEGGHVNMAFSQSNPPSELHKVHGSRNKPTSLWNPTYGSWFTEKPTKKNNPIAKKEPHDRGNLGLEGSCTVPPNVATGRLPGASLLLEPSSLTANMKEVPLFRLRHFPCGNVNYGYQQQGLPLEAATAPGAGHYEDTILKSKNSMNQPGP

Row | SMILES | IC50 (ALK; ALK Kinase Inhibition) | IC50 (JAK2; JAK2 Kinase Inhibition) | IC50 (ALK; [1]) | IC50 (JAK2; [2])
1 | Cc1nc2cc(Nc3ncc4ccc(-c5cccc(S(=O)(=O)NC(C)(C)C)c5)n4n3)ccc2s1 [Example 574, N-tert-Butyl-3-[2-(2-methyl-benzothiazol-5-ylamino)-pyrrolo[2,1-f][1,2,4]triazin-7-yl]-benzenesulfonamide] | – | – | 1000 to 10000 nM | < 100 nM
2 | COc1cc2c(cc1Nc1ncc3ccc(-c4cccc5c4OCC5)n3n1)CCCC(N1CCN(CCO)CC1)C2 (stereo not shown) [Example 707, 2-(4-{2-[7-(2,3-Dihydro-benzofuran-7-yl)-pyrrolo[2,1-f][1,2,4]triazin-2-ylamino]-3-methoxy-6,7,8,9-tetrahydro-5H-benzocyclohepten-6-yl}-piperazin-1-yl)-ethanol] | – | – | < 100 nM | 100 to 1000 nM
3 | CC1(C)C(=O)Nc2cc(Nc3ncc4ccc(-c5ccccn5)n4n3)ccc21 [Example 1563, 3,3-Dimethyl-6-(7-pyridin-2-yl-pyrrolo[2,1-f][1,2,4]triazin-2-ylamino)-1,3-dihydro-indol-2-one] | 100 to 1000 nM | < 100 nM | – | –
4 | COc1cc(N2CCC(N3CCN(C)CC3)CC2)ccc1Nc1ncc2ccc(-c3ccc(Cl)nc3)n2n1 [Example 533, [7-(6-Chloro-pyridin-3-yl)-pyrrolo[2,1-f][1,2,4]triazin-2-yl]-{2-methoxy-4-[4-(4-methyl-piperazin-1-yl)-piperidin-1-yl]-phenyl}-amine] | – | – | < 100 nM | < 100 nM
5 | COc1cc(-c2cccnc2)ccc1Nc1ncc2ccc(-c3ccccc3OC)n2n1 [Example 807, [7-(2-Methoxy-phenyl)-pyrrolo[2,1-f][1,2,4]triazin-2-yl]-(2-methoxy-4-pyridin-3-yl-phenyl)-amine] | – | – | 1000 to 10000 nM | > 10000 nM
6 | COc1ccc(Nc2ncc3ccc(-c4cccc(Cl)c4)n3n2)cc1 [Example 155, [7-(3-Chloro-phenyl)-pyrrolo[2,1-f][1,2,4]triazin-2-yl]-(4-methoxy-phenyl)-amine] | > 10000 nM | < 100 nM | – | –
7 | COc1cc(N(C)C(=O)CN2CCN(C)CC2)ccc1Nc1ncc2ccc(-c3ccccc3OC)n2n1 [Example 474, N-{3-Methoxy-4-[7-(2-methoxy-phenyl)-pyrrolo[2,1-f][1,2,4]triazin-2-ylamino]-phenyl}-N-methyl-2-(4-methyl-piperazin-1-yl)-acetamide] | – | – | < 100 nM | 1000 to 10000 nM
8 | COc1cc(Cn2ccnc2C)ccc1Nc1ncc2ccc(-c3ccccc3OC)n2n1 [Example 506, [2-Methoxy-4-(2-methyl-imidazol-1-ylmethyl)-phenyl]-[7-(2-methoxy-phenyl)-pyrrolo[2,1-f][1,2,4]triazin-2-yl]-amine] | – | – | < 100 nM | 100 to 1000 nM
9 | CC(=O)Nc1cccc(Nc2ncc3ccc(-c4cccc(S(=O)(=O)NC(C)(C)C)c4)n3n2)c1 [Example 1368, N-{3-[7-(3-tert-Butylsulfamoyl-phenyl)-pyrrolo[2,1-f][1,2,4]triazin-2-ylamino]-phenyl}-acetamide] | 100 to 1000 nM | < 100 nM | – | –
10 | COCCN1CCc2ccc(Nc3ncc4ccc(-c5cccc(CCC#N)c5)n4n3)cc2CC1 [Example 1152, 3-(3-{2-[3-(2-Methoxy-ethyl)-2,3,4,5-tetrahydro-1H-benzo[d]azepin-7-ylamino]-pyrrolo[2,1-f][1,2,4]triazin-7-yl}-phenyl)-propionitrile] | – | – | < 100 nM | < 100 nM
11 | COc1cccc(Nc2ncc3ccc(-c4cccc(Cl)c4)n3n2)c1 [Example 146, [7-(3-Chloro-phenyl)-pyrrolo[2,1-f][1,2,4]triazin-2-yl]-(3-methoxy-phenyl)-amine] | > 10000 nM | < 100 nM | – | –
12 | COc1ccc(-c2ccc3cnc(Nc4ccc(C5=CCN(CC(N)=O)CC5)c(C(F)(F)F)c4)nn23)cn1 [Example 953, 2-(4-{4-[7-(6-Methoxy-pyridin-3-yl)-pyrrolo[2,1-f][1,2,4]triazin-2-ylamino]-2-trifluoromethyl-phenyl}-3,6-dihydro-2H-pyridin-1-yl)-acetamide] | – | – | 1000 to 10000 nM | < 100 nM
13 | COc1cc(C2CCCN(CC(N)=O)C2)ccc1Nc1ncc2ccc(-c3ccccc3OC)n2n1 (racemic) [Example 860, (±)-2-(3-{3-Methoxy-4-[7-(2-methoxy-phenyl)-pyrrolo[2,1-f][1,2,4]triazin-2-ylamino]-phenyl}-piperidin-1-yl)-acetamide] | – | – | < 100 nM | < 100 nM

Results, then the molecule that gave them:

Row | IC50 (ALK; ALK Kinase Inhibition) | IC50 (JAK2; JAK2 Kinase Inhibition) | IC50 (ALK; [1]) | IC50 (JAK2; [2]) | SMILES
14 | 1000 to 10000 nM | < 100 nM | – | – | CC(=O)Nc1cccc(Nc2ncc3ccc(-c4ccccc4NS(C)(=O)=O)n3n2)c1 [Example 1382, N-{3-[7-(2-Methanesulfonylamino-phenyl)-pyrrolo[2,1-f][1,2,4]triazin-2-ylamino]-phenyl}-acetamide]
15 | 100 to 1000 nM | < 100 nM | – | – | COc1ccc(Nc2ncc3ccc(-c4cccc(NS(C)(=O)=O)c4)n3n2)cc1N1CCOCC1 [Example 395, N-{3-[2-(4-Methoxy-3-morpholin-4-yl-phenylamino)-pyrrolo[2,1-f][1,2,4]triazin-7-yl]-phenyl}-methanesulfonamide]
16 | – | – | 100 to 1000 nM | < 100 nM | CN1CCN(c2ccc(Nc3ncc4ccc(-c5ccc(C=O)cc5)n4n3)cc2)CC1 [Example 1203, 4-{2-[4-(4-Methyl-piperazin-1-yl)-phenylamino]-pyrrolo[2,1-f][1,2,4]triazin-7-yl}-benzaldehyde]
17 | – | – | 1000 to 10000 nM | 100 to 1000 nM | CS(=O)(=O)Nc1ccncc1-c1ccc2cnc(Nc3ccc(N4CCOCC4)cc3)nn12 [Example 1219, N-{3-[2-(4-Morpholin-4-yl-phenylamino)-pyrrolo[2,1-f][1,2,4]triazin-7-yl]-pyridin-4-yl}-methanesulfonamide]
18 | 1000 to 10000 nM | < 100 nM | – | – | OCC1CCN(c2ccc(Nc3ncc4ccc(-c5cccnc5)n4n3)cc2)CC1 [Example 116, {1-[4-(7-Pyridin-3-yl-pyrrolo[2,1-f][1,2,4]triazin-2-ylamino)-phenyl]-piperidin-4-yl}-methanol]
19 | – | – | < 100 nM | 1000 to 10000 nM | COc1cc(CN2CCC(O)CC2)ccc1Nc1ncc2ccc(-c3ccccc3N(C)S(C)(=O)=O)n2n1 [Example 1234, N-(2-{2-[4-(4-Hydroxy-piperidin-1-ylmethyl)-2-methoxy-phenylamino]-pyrrolo[2,1-f][1,2,4]triazin-7-yl}-phenyl)-N-methyl-methanesulfonamide]
20 | 100 to 1000 nM | < 100 nM | – | – | O=S(=O)(c1ccccc1)c1ccc2cnc(Nc3ccc(N4CCOCC4)cc3)nn12 [Example 111, (7-Benzenesulfonyl-pyrrolo[2,1-f][1,2,4]triazin-2-yl)-(4-morpholin-4-yl-phenyl)-amine]
21 | – | – | < 100 nM | < 100 nM | CN1CCC(c2ccc(Nc3ncc4ccc(-c5ccccc5N(C)S(C)(=O)=O)n4n3)cc2)CC1 [Example 1178, N-Methyl-N-(2-{2-[4-(1-methyl-piperidin-4-yl)-phenylamino]-pyrrolo[2,1-f][1,2,4]triazin-7-yl}-phenyl)-methanesulfonamide]
22 | – | – | 100 to 1000 nM | < 100 nM | Cc1cc(-c2ccc3cnc(Nc4ccc(N5CCN(C)CC5)cc4)nn23)cnc1F [Example 1046, [7-(6-Fluoro-5-methyl-pyridin-3-yl)-pyrrolo[2,1-f][1,2,4]triazin-2-yl]-[4-(4-methyl-piperazin-1-yl)-phenyl]-amine]
23 | – | – | 1000 to 10000 nM | < 100 nM | CN(c1ccccc1-c1ccc2cnc(Nc3ccc(N4CCOCC4)cn3)nn12)S(C)(=O)=O [Example 1176, N-Methyl-N-{2-[2-(5-morpholin-4-yl-pyridin-2-ylamino)-pyrrolo[2,1-f][1,2,4]triazin-7-yl]-phenyl}-methanesulfonamide]
24 | – | – | 100 to 1000 nM | < 100 nM | CN(c1ccccc1-c1ccc2cnc(Nc3ccc(N4CCC(O)CC4)cc3)nn12)S(C)(=O)=O [Example 635, N-(2-{2-[4-(4-Hydroxy-piperidin-1-yl)-phenylamino]pyrrolo[2,1-f][1,2,4]triazin-7-yl}phenyl)-N-methylmethanesulfonamide]
25 | – | – | 1000 to 10000 nM | < 100 nM | COc1ccccc1-c1ccc2cnc(Nc3cccc(S(=O)(=O)N(C)C)c3)nn12 [Example 594, 3-[7-(2-Methoxy-phenyl)-pyrrolo[2,1-f][1,2,4]triazin-2-ylamino]-N,N-dimethyl-benzenesulfonamide]
26 | – | – | < 100 nM | < 100 nM | COc1ccc(-c2ccc3cnc(Nc4ccc(C5CCN(CC(N)=O)CC5)cc4)nn23)c(OC)n1 [Example 682, 2-(4-{4-[7-(2,6-Dimethoxy-pyridin-3-yl)-pyrrolo[2,1-f][1,2,4]triazin-2-ylamino]-phenyl}-piperidin-1-yl)-acetamide]
27 | – | – | < 100 nM | 100 to 1000 nM | COc1cc([C@@]2(O)CCN(CCF)C[C@@H]2O)ccc1Nc1ncc2ccc(-c3ccccc3N(C)S(C)(=O)=O)n2n1 (racemic) [Example 845, (±)-N-[2-(2-{4-[(3S,4S)-1-(2-Fluoro-ethyl)-3,4-dihydroxy-piperidin-4-yl]-2-methoxy-phenylamino}-pyrrolo[2,1-f][1,2,4]triazin-7-yl)-phenyl]-N-methyl-methanesulfonamide]
28 | – | – | 100 to 1000 nM | < 100 nM | CN1CCC(c2ccc(Nc3ncc4ccc(-c5cccc(S(=O)(=O)NCc6ccccc6)c5)n4n3)cc2)CC1 [Example 904, N-Benzyl-3-{2-[4-(1-methyl-piperidin-4-yl)-phenylamino]-pyrrolo[2,1-f][1,2,4]triazin-7-yl}-benzenesulfonamide]
29 | – | – | < 100 nM | 100 to 1000 nM | COc1cc(C2CCN(CCF)CC2)ccc1Nc1ncc2ccc(-c3ccccc3N(C)S(C)(=O)=O)n2n1 [Example 792, N-[2-(2-{4-[1-(2-Fluoro-ethyl)-piperidin-4-yl]-2-methoxy-phenylamino}-pyrrolo[2,1-f][1,2,4]triazin-7-yl)-phenyl]-N-methyl-methanesulfonamide]
